# Laboratory results from patent publication US11318131B2, “Nanoliposomal irinotecan for use in treating small cell lung cancer” (Ipsen Biopharm Ltd., priority 2015, dated 2022).
# Like-named read-outs stand apart in the source and are kept apart here.
# Tests used:
# [1] = test system: DMS-114 xenograft; test: DMS-114 xenograft, topotecan-treated tumors; details: nal-IRI 16 mg/kg; irinotecan 33 mg/kg
# [2] = test system: NCI-H1048 xenograft; test: Second line SCLC model: NCI-H1048 after carboplatin plus etoposide; type: in vivo; details: weekly: nal-IRI 16 mg/kg IV; irinotecan 33 mg/kg IV; topotecan 1.66 mg/kg/wk IP days 1 and 2
# Protocol: As described below, mice bearing NCI-H1048 SCLC tumors were treated with a carboplatin plus etoposide, a first line regimen in SCLC. Once the tumors escaped growth control by carboplatin plus etoposide, mice were randomized to either continue treatment with carboplatin plus etoposide or switch to second line treatment with either irinotecan liposome injection, non-liposomal irinotecan or topotecan.
# NOD/SCID mice with NCIH1048 SCLC xenograft tumors were treated weekly with the combination of 30 mg/kg carboplatin plus 25 mg/kg etoposide. […] . […] . […] . FIG. 21B is a survival graph for mice on each of the treatments.
# [3] = test system: NCI-H1048 xenograft; test: NCI-H1048 SCLC xenograft, treatment naive; details: for anti-tumor activity / response (in words): NCI-H1048, irinotecan 33 mg/kg IV, weekly
# [4] = test system: DMS-114 xenograft; test: DMS-114 SCLC xenograft, NOD/SCID mice
# [5] = test system: small cell lung cancer (SCLC); details: second line SCLC, cited from earlier work; for grade 3 or greater diarrhea / grade 3 or greater neutropenia rates / overall response rates / overall survival (OS) / progression free survival (PFS): topotecan 1.5 mg/m^2 days 1-5 every 3 weeks, non-liposomal irinotecan 300 mg/m^2 every 3 weeks; for overall survival: certain regimens
# [6] = test system: SW1271 SCLC cell line; test: SN-38 in vitro growth and viability assay; type: cell-based
# [7] = test system: DMS114 SCLC cell line
# Protocol: (§1) Irinotecan liposome injection was administered intravenously to mice bearing xenograft tumors. At 24 hours post administration, mice were sacrificed and tumors were harvested. Irinotecan and SN-38 in tumors were measured by high performance liquid chromatography (HPLC). Data were normalized to injected dose per tumor weight. […] Cell growth inhibition kinetics of SN-38 in the cell lines was determined using IncuCyte® ZOOM System.
# [8] = test system: NCI-H1048 SCLC cell line
# Protocol: as §1
# [9] = test system: NCI-H1048 SCLC cell line; test: Cell growth inhibition kinetics, IncuCyte ZOOM System; type: cell-based; details: NCI-H1048, time-course of 88 hours
# [10] = test system: DMS-114 SCLC cell line; test: as above; type: cell-based; details: DMS-114, time-course of 88 hours
# [11] = test system: DMS53 SCLC cell line; test: SN-38 in vitro growth and viability assay; type: cell-based
# [12] = test system: DMS-53 xenograft; test: DMS-53 SCLC xenograft; details: nal-IRI 16 mg/kg IV, topotecan 0.83 mg/kg/wk days 1-2, weekly
# [13] = nal-IRI 16 mg/kg IV, topotecan 0.83 mg/kg/wk days 1-2 IP
structure (smiles),measurement,setting,value
"CCc1c2c(nc3ccc(OC(=O)N4CCC(N5CCCCC5)CC4)cc13)-c1cc3c(c(=O)n1C2)COC(=O)[C@]3(O)CC [non-liposomal irinotecan, (S)-4,11-diethyl-3,4,12,14-tetrahydro-4-hydroxy-3,14-dioxo1H-pyrano[3′,4′:6,7]-indolizino[1,2-b]quinolin-9-yl-[1,4′bipiperidine]-1′-carboxylate]",responsiveness of topotecan-treated DMS114 tumors,[1],not
same,anti-tumor activity in carboplatin plus etoposide-treated SCLC tumors (in words),[2],active but after 3rd cycle some tumors are trending regrowth
same,anti-tumor activity / response (in words),[3]; [13],progress after initially responding to treatment
same,anti-tumor activity / response (in words),"[4]; DMS-114, nal-IRI 16 mg/kg IV, irinotecan 33 mg/kg IV, topotecan 0.83 mg/kg/wk days 1-2 IP, weekly",became less responsive after 2-3 cycles
same,grade 3 or greater diarrhea,[5],0-13%
same,grade 3 or greater neutropenia rates,[5],21-23%
same,overall response rates,[5],0-33%
same,overall survival (OS),[5],4.6-6.9 months
same,progression free survival (PFS),[5],1.7-2.8 months
CCc1c2c(nc3ccc(O)cc13)-c1cc3c(c(=O)n1C2)COC(=O)[C@]3(O)CC [SN-38],decrease in cell viability,[6],> 90%
same,decrease in cell viability,[7],> 90%
same,decrease in cell viability,[8],> 90%
same,concentration with cell killing after prolonged incubation times,[9],≥ 10 nM
same,concentration with effective cell growth inhibition,[9],1 to 10 nM
same,concentration with cell killing after prolonged incubation times,[10],≥ 10 nM
same,concentration with effective cell growth inhibition,[10],1 to 10 nM
same,decrease in cell viability,[11],> 90%
CC[C@@]1(O)C(=O)OCc2c1cc1n(c2=O)Cc2cc3c(CN(C)C)c(O)ccc3nc2-1 [topotecan],anti-tumor activity in carboplatin plus etoposide-treated SCLC tumors (in words),[2],seems to be active after 1-2 cycles but progress quickly after 3rd dose
same,mice with complete tumor regressions after 4 cycles of treatment,"[3]; Example 11, nal-IRI 16 mg/kg salt q1w, topotecan 0.83 mg/kg/week Day 1-2",0 out of 7
same,mice with complete regressions of their tumors,"[3]; Example 15, n=10, nal-IRI 16 mg/kg IV, topotecan 0.83 mg/kg/wk days 1-2 IP",0 out of 10
same,anti-tumor activity / response (in words),[3]; [13],limited tumor growth control
same,anti-tumor activity of bolus (day 1) compared to fractionated (days 1 & 2) dosing,"[4]; same dose intensity, FIG. 15 (DMS-114, NCI-H1048)",less anti-tumor activity
same,overall survival,[5]; all patients,7.8 months
same,overall survival,[5]; refractory patients,5.7 months
same,overall survival,[5]; sensitive patients,9.9 months
same,grade 3 or greater diarrhea,[5],less than 5%
same,grade 3 or greater neutropenia rates,[5],28-88%
same,overall response rates,[5],7-24%
same,overall survival (OS),[5],5.0-8.9 months
same,progression free survival (PFS),[5],3.1-3.7 months
same,anti-tumor activity / response (in words),[12],limited tumor growth control
